How the values were obtained:
[1] = test system: UTP-stimulated Ca2+ response in HT-29 cells; assay: Ca FLIPR TETRA assay, ANTAGONIST mode, stimulation with 0.6 μM UTP; assay type: cell-based, human; conditions: Homo sapiens; HT-29 cells, stimulation with 0.6 μM UTP
Procedure: (§1) Example 60: Protocol for Testing PAR2 Compounds in ANTAGONIST Mode Using the Ca FLIPR^TETRA Assay (384 Well)
(§2) 23000 HT-29 cells (ATCC# HTB-38) were plated in 384-well black, transparent-flat bottom plates and incubated in 25 uL of 1% FBS/McCoy's media ON at 37° C. under an atmosphere of 5% CO2. The following day, 25 uL FLIPR calcium 5 Molecular Devices assay reagent (Cat: R-8186) was added. Plates were incubated at 37° C. and r. t. for 45 min and 15 min, respectively. Compounds dilutions were prepared in 100% DMSO using a Biomek FX and diluted 20-fold in HBSS and then 5.5 uL was added directly to the cells by the FLIPR^TETRA (10× dilution) using FLIPR Tetra Pipette tips, black, non-sterile, 384 Molecular Devices (Cat: 9000-0764).
(§3) A first read was performed to determine whether the test compounds on their own can activate Ca2+ responses.
(§4) The cells were incubated with the compounds for 30 min at r. t. and then read in ANTAGONIST mode in the same plate by stimulating with 6.2 uL of a fixed concentration of the activator: final concentrations: 8 μM SLIGKV, 1 U/mL Thrombin, 3.1 U/mL trypsin, or 0.6 μM UTP.

[2] = test system: Thrombin-stimulated Ca2+ response in HT-29 cells; assay: Ca FLIPR TETRA assay, ANTAGONIST mode, stimulation with 1 U/mL Thrombin; assay type: cell-based, human; conditions: Homo sapiens; HT-29 cells, stimulation with 1 U/mL Thrombin
Procedure: as §1, §2, §3, §4

[3] = target: T1, PAR2 (HT-29 cells, SLIGKV activation) (Homo sapiens, UniProt P55085); assay: Ca FLIPR TETRA assay, ANTAGONIST mode, stimulation with 8 μM SLIGKV; assay type: cell-based; conditions: HT-29 cells, stimulation with 8 μM SLIGKV
T1 construct: host or cells: HT-29 cells
T1 sequence (P55085 26-397): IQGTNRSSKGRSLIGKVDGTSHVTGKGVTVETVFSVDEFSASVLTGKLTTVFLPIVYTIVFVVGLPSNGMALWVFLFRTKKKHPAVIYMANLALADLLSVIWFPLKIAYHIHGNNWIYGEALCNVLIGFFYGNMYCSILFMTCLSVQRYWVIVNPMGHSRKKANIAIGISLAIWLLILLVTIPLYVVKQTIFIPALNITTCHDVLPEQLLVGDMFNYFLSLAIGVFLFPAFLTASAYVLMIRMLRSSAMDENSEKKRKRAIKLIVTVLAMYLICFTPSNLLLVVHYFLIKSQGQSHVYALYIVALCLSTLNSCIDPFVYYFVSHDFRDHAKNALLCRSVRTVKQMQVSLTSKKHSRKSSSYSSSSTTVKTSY
Procedure: as §1, §2, §3, §4

[4] = target: T2, PAR2 (HT-29 cells, trypsin activation) (Homo sapiens, UniProt P55085); assay: Ca FLIPR TETRA assay, ANTAGONIST mode, stimulation with 3.1 U/mL trypsin; assay type: cell-based; conditions: HT-29 cells, stimulation with 3.1 U/mL trypsin
T2 construct: host or cells: HT-29 cells
T2 sequence (P55085 26-397): T1 sequence (P55085 26-397)
Procedure: as §1, §2, §3, §4

Row | IC50 [1] [µM] | IC50 [2] [µM] | IC50 [3] [µM] | IC50 [4] [µM] | SMILES
1 | 25 | 21 | 0.007 | 0.014 | CC(C)C(O)C(=O)N1CCN(C(=O)c2cn3nc(-c4ccc(F)cc4)cc(C4CC4)c3n2)C(C)(C)C1 (stereo not shown) [Compound I-22, 1-[4-[8-cyclopropyl-6-(4-fluorophenyl)imidazo[1,2-b]pyridazine-2-carbonyl]-3,3-dimethyl-piperazin-1-yl]-2-hydroxy-3-methyl-butan-1-one]
2 | > 50 | > 50 | 0.13 | 0.3 | CC(C)c1cc(-c2ccc(F)cc2)nn2cc(C(=O)N3CCN(C(=O)OC(C)(C)C)CC34COC4)nc12 [Compound I-23, tert-butyl 5-[6-(4-fluorophenyl)-8-isopropyl-imidazo[1,2-b]pyridazine-2-carbonyl]-2-oxa-5,8-diazaspiro[3.5]nonane-8-carboxylate]
3 | > 50 | > 50 | 0.22 | 0.59 | CC(C)c1cc(-c2ccc(F)cc2)nn2cc(C(=O)N3CCC4(CC3)CNC(=O)O4)nc12 [Compound I-24, 8-[6-(4-fluorophenyl)-8-isopropyl-imidazo[1,2-b]pyridazine-2-carbonyl]-1-oxa-3,8-diazaspiro[4.5]decan-2-one]
4 | > 50 | > 50 | 0.009 | 0.021 | CC(C)c1cc(-c2ccc(F)cc2)nn2cc(C(=O)N3CCNC(=O)C3(C)C)nc12 [Compound I-25, 4-[6-(4-fluorophenyl)-8-isopropyl-imidazo[1,2-b]pyridazine-2-carbonyl]-3,3-dimethyl-piperazin-2-one]
5 | 31 | 28 | 4.4 | 9.1 | CC(C)c1cc(-c2ccc(F)cc2)nn2cc(C(=O)N3CCN(C(=O)C4(O)CCOCC4)CC34COC4)nc12 [Compound I-26, [6-(4-fluorophenyl)-8-isopropyl-imidazo[1,2-b]pyridazin-2-yl]-[8-(4-hydroxytetrahydropyran-4-carbonyl)-2-oxa-5,8-diazaspiro[3.5]nonan-5-yl]methanone]
6 | 38 | 33 | 8.8 | 15 | CC(C)c1cc(-c2ccc(F)cc2)nn2cc(C(=O)N3CCN(C(=O)C4(O)CCC4)C[C@@H]3C)nc12 [Compound I-28, [6-(4-fluorophenyl)-8-isopropyl-imidazo[1,2-b]pyridazin-2-yl]-[(2S)-4-(1-hydroxycyclobutanecarbonyl)-2-methyl-piperazin-1-yl]methanone]
7 | 26 | 25 | 0.002 | 0.003 | CC1(c2cc(-c3ccc(F)cc3)nn3cc(C(=O)N4CCNC(=O)C4(C)C)nc23)CC1 [Compound I-30, 4-[6-(4-fluorophenyl)-8-(1-methylcyclopropyl)imidazo[1,2-b]pyridazine-2-carbonyl]-3,3-dimethyl-piperazin-2-one]
8 | 24 | 19 | 0.031 | 0.042 | CC1(c2cc(-c3ccc(F)cc3)nn3cc(C(=O)N4CCN(C(=O)C5(O)CCOCC5)CC4(C)C)nc23)CC1 [Compound I-31, [6-(4-fluorophenyl)-8-(1-methylcyclopropyl)imidazo[1,2-b]pyridazin-2-yl]-[4-(4-hydroxytetrahydropyran-4-carbonyl)-2,2-dimethyl-piperazin-1-yl]methanone]
9 | > 50 | > 50 | 0.045 | 0.014 | CC1(c2cc(-c3ccc(F)cc3)nn3cc(C(=O)N4CCN(C(=O)C5(O)CCC5)CC4(C)C)nc23)CC1 [Compound I-33, [6-(4-fluorophenyl)-8-(1-methylcyclopropyl)imidazo[1,2-b]pyridazin-2-yl]-[4-(1-hydroxycyclobutanecarbonyl)-2,2-dimethyl-piperazin-1-yl]methanone]
10 | 21 | 21 | 0.054 | 0.059 | C[C@H](O)C(=O)N1CCN(C(=O)c2cn3nc(-c4ccc(F)cc4)cc(C4(C)CC4)c3n2)C(C)(C)C1 [Compound I-34, (2S)-1-[4-[6-(4-fluorophenyl)-8-(1-methylcyclopropyl)imidazo[1,2-b]pyridazine-2-carbonyl]-3,3-dimethyl-piperazin-1-yl]-2-hydroxy-propan-1-one]
11 | 41 | 43 | 0.023 | 0.062 | CC1(C)C(=O)NCCN1C(=O)c1cn2nc(-c3ccc(F)cc3)cc(C(F)(F)F)c2n1 [Compound I-35, 4-[6-(4-Fluorophenyl)-8-(trifluoromethyl)imidazo[1,2-b]pyridazine-2-carbonyl]-3,3-dimethyl-piperazin-2-one]
12 | > 50 | > 50 | 0.071 | 0.24 | CC(C)(O)C(=O)N1CCN(C(=O)c2cn3nc(-c4ccc(F)cc4)cc(C(F)(F)F)c3n2)C(C)(C)C1 [Compound I-36, 1-[4-[6-(4-Fluorophenyl)-8-(trifluoromethyl)imidazo[1,2-b]pyridazine-2-carbonyl]-3,3-dimethyl-piperazin-1-yl]-2-hydroxy-2-methyl-propan-1-one]
13 | > 50 | > 50 | 0.2 | 0.25 | CC1(C)CN(C(=O)C2(O)CCC2)CCN1C(=O)c1cn2nc(-c3ccc(F)cc3)cc(C(F)(F)F)c2n1 [Compound I-37, [6-(4-Fluorophenyl)-8-(trifluoromethyl)imidazo[1,2-b]pyridazin-2-yl]-[4-(1-hydroxycyclobutanecarbonyl)-2,2-dimethyl-piperazin-1-yl]methanone]
14 | > 45 | > 50 | 0.39 | 0.48 | CC1(C)CN(C(=O)C2(O)CCOCC2)CCN1C(=O)c1cn2nc(-c3ccc(F)cc3)cc(C(F)(F)F)c2n1 [Compound I-38, [6-(4-Fluorophenyl)-8-(trifluoromethyl)imidazo[1,2-b]pyridazin-2-yl]-[4-(4-hydroxytetrahydropyran-4-carbonyl)-2,2-dimethyl-piperazin-1-yl]methanone]
15 | > 50 | > 50 | 0.83 | 0.86 | C[C@H](O)C(=O)N1CCN(C(=O)c2cn3nc(-c4ccc(F)cc4)cc(C(F)(F)F)c3n2)C(C)(C)C1 [Compound I-39, (2S)-1-[4-[6-(4-Fluorophenyl)-8-(trifluoromethyl)imidazo[1,2-b]pyridazine-2-carbonyl]-3,3-dimethyl-piperazin-1-yl]-2-hydroxy-propan-1-one]
16 | 17 | 24 | 0.072 | 0.37 | CC(C)c1cc(C2=CCCCC2)nn2cc(C(=O)N3CCN(C(=O)C4(O)CCC4)CC3(C)C)nc12 [Compound I-40, [6-(Cyclohexen-1-yl)-8-isopropyl-imidazo[1,2-b]pyridazin-2-yl]-[4-(1-hydroxycyclobutanecarbonyl)-2,2-dimethyl-piperazin-1-yl]methanone]
17 | 21 | 20 | 0.061 | 0.28 | CC(C)c1cc(C2CCCCC2)nn2cc(C(=O)N3CCN(C(=O)C4(O)CCC4)CC3(C)C)nc12 [Compound I-41, (6-Cyclohexyl-8-isopropyl-imidazo[1,2-b]pyridazin-2-yl)-[4-(1-hydroxycyclobutanecarbonyl)-2,2-dimethyl-piperazin-1-yl]methanone]
18 | 41 | 32 | 2.2 | 5.2 | CC(C)c1cc(C#CC2CC2)nn2cc(C(=O)N3CCN(C(=O)C4(O)CCC4)CC3(C)C)nc12 [Compound I-42, [6-(2-Cyclopropylethynyl)-8-isopropyl-imidazo[1,2-b]pyridazin-2-yl]-[4-(1-hydroxycyclobutanecarbonyl)-2,2-dimethyl-piperazin-1-yl]methanone]
19 | 31 | 27 | 0.48 | 1.1 | CC(C)c1cc(C2=CCCC2)nn2cc(C(=O)N3CCN(C(=O)C4(O)CCC4)CC3(C)C)nc12 [Compound I-43, [6-(Cyclopenten-1-yl)-8-isopropyl-imidazo[1,2-b]pyridazin-2-yl]-[4-(1-hydroxycyclobutanecarbonyl)-2,2-dimethyl-piperazin-1-yl]methanone]
